Source: ChEMBL document CHEMBL5034041, “Discovery of Meso-(meta-Pyridinium) BODIPY Photosensitizers: In Vitro and In Vivo Evaluations for Antimicrobial Photodynamic Therapy” (J Med Chem, 2021)
Activity calls are given as the source filed them. The calls are words filed in the database; no cut-off is given here.

How the values were obtained:
Candida albicans [1] = assay: Photodynamic antimicrobial activity against Candida albicans ATCC14053 assessed as loss of microbial viability at 2 uM preincubated for 15 mins followed by light irradiation at 81 J/cm^2 dose for 15 mins and measured after 36 hrs; assay type: functional; conditions: time 36.5 hrs
[2] = Drug uptake in Staphylococcus aureus ATCC 29213 at 10 uM incubated at 37 degree for 15 mins by UV-vis absorption spectra analysis relative to control; assay type: ADME; conditions: 0.25 h
Staphylococcus aureus [3] = assay: Photodynamic antimicrobial activity against Staphylococcus aureus ATCC 29213 preincubated for 15 mins followed by irradiation with 90 mW/cm^2 light for 15 mins and measured after 24 hrs; assay type: functional; conditions: ATCC 29213, light or radiation study, time 24.5 hrs
Candida albicans [4] = assay: Photodynamic antimicrobial activity against Candida albicans ATCC 14053 preincubated for 15 mins followed by irradiation with 90 mW/cm^2 light for 15 mins and measured after 24 hrs; assay type: functional; conditions: ATCC 14053, light or radiation study, time 24.5 hrs
Staphylococcus aureus [5] = assay: Photodynamic antimicrobial activity against methicillin resistant Staphylococcus aureus ATCC43300 assessed as loss of microbial viability at 2 uM preincubated for 15 mins followed by light irradiation at 81 J/cm^2 dose for 15 mins and measured after 36 hrs; assay type: functional; conditions: time 36.5 hrs
Escherichia coli [6] = assay: Photodynamic antimicrobial activity against Escherichia coli ATCC 25922 preincubated for 15 mins followed by irradiation with 90 mW/cm^2 light for 15 mins and measured after 24 hrs; assay type: functional; conditions: ATCC 25922, light or radiation study, time 24.5 hrs
Candida albicans [7] = assay: Drug uptake in Candida albicans ATCC 14053 at 10 uM incubated at 37 degree for 15 mins by UV-vis absorption spectra analysis relative to control; assay type: ADME, organism-based; conditions: 0.25 h
[8] = Octanol-water partition coefficient, logP of the compound at 2 uM after 20 hrs by HPLC analysis; assay type: physicochemical
[9] = Drug uptake in Escherichia coli ATCC 25922 at 10 uM incubated at 37 degree for 15 mins by UV-vis absorption spectra analysis relative to control; assay type: ADME; conditions: 0.25 h
Staphylococcus aureus [10] = assay: Photodynamic antimicrobial activity against methicillin resistant Staphylococcus aureus ATCC43300 preincubated for 15 mins followed by irradiation with 90 mW/cm^2 light for 15 mins and measured after 24 hrs; assay type: functional; conditions: ATCC43300, light or radiation study, time 24.5 hrs
Escherichia coli [11] = assay: Photodynamic antimicrobial activity against Escherichia coli ATCC25922 assessed as loss of microbial viability at 2 uM preincubated for 15 mins followed by light irradiation at 81 J/cm^2 dose for 15 mins and measured after 36 hrs; assay type: functional, ATCC 25922; conditions: time 36.5 hrs
Staphylococcus aureus [12] = assay: Photodynamic antimicrobial activity against Staphylococcus aureus […] assessed as loss of microbial viability at 2 uM preincubated for 15 mins followed by light irradiation at 81 J/cm^2 dose for 15 mins and measured after 36 hrs; assay type: functional; conditions: time 36.5 hrs
Escherichia coli [13] = assay: Photodynamic antimicrobial activity against Escherichia coli ATCC25922 assessed as decrease in viable cell log count at 2.5 uM preincubated for 15 mins followed by light irradiation at 81 J/cm^2 dose for 15 mins and measured after 36 hrs; assay type: functional, ATCC 25922; conditions: time 36.5 hrs
Escherichia coli [14] = assay: Photodynamic antimicrobial activity against Escherichia coli ATCC25922 assessed as decrease in viable cell log count at 5 uM preincubated for 15 mins followed by light irradiation at 81 J/cm^2 dose for 15 mins and measured after 36 hrs; assay type: functional, ATCC 25922; conditions: time 36.5 hrs
Escherichia coli [15] = assay: Photodynamic antimicrobial activity against Escherichia coli ATCC25922 assessed as decrease in viable cell log count at 1.25 uM preincubated for 15 mins followed by light irradiation at 81 J/cm^2 dose for 15 mins and measured after 36 hrs; assay type: functional, ATCC 25922; conditions: time 36.5 hrs
Staphylococcus aureus [16] = assay: Photodynamic antimicrobial activity against methicillin resistant Staphylococcus aureus ATCC43300 assessed as log count reduction in viable cells at 1.25 uM incubated in dark for 15 mins followed by light irradiation at 81 J/cm^2 dose for 15 mins and measured after 36 hrs; assay type: functional; conditions: time 36.5 hrs
Escherichia coli [17] = assay: Photodynamic antimicrobial activity against Escherichia coli ATCC25922 assessed as bacterial clearance ratio at 1.25 uM preincubated for 15 mins in dark followed by irradiation with 81 J/cm^2 light for 20 to 25 mins and measured after 36 hrs; assay type: functional, ATCC 25922; conditions: time 2195-2200 min
HaCaT [18] = assay: Dark toxicity against human HaCat cells assessed as reduction in cell survival upto 20 uM incubated under dark condition for 15 mins by CCK-8 assay; assay type: cell-based; conditions: 0.25 h
Staphylococcus aureus [19] = assay: In vivo antibacterial activity against Staphylococcus aureus ATCC29213 infected in Swiss albino mouse assessed as reduction in neutophils count at 10 mg treated on day 2 post infection and followed by irradiation with 81 J/cm^2 light for 15 mins and measured every 3 days upto 8 days by H and E staining analysis; assay type: functional, organism-based; conditions: time 8.0 day
Cell membrane [20] = assay: Induction of cell membrane disruption in Staphylococcus aureus ATCC29213 at 2.5 uM preincubated for 15 mins followed by irradiated with 81 J/cm^2 light for 15 mins by DAPI staining based confocal laser scanning microscopic analysis; conditions: time 30.0 min
Cell membrane [21] = assay: Induction of cell membrane disruption in Escherichia coli ATCC25922 at 5 uM preincubated for 15 mins followed by irradiated with 81 J/cm^2 light for 15 mins by DAPI staining based confocal laser scanning microscopic analysis; conditions: Escherichia coli ATCC 25922, time 30.0 min
Staphylococcus aureus [22] = assay: Induction of morphological changes in Staphylococcus aureus ATCC 29213 at 10 uM preincubated for 15 mins followed by light irradiation at 90 mW/cm2 for 15 mins by SEM analysis; assay type: functional, organism-based; conditions: time 30.0 min
Staphylococcus aureus [23] = assay: Photodynamic antimicrobial activity against Staphylococcus aureus […] assessed as decrease in viable cell log count at 5 uM preincubated for 15 mins followed by light irradiation at 81 J/cm^2 dose for 15 mins and measured after 36 hrs; assay type: functional; conditions: time 36.5 hrs
Candida albicans [24] = assay: Photodynamic antimicrobial activity against Candida albicans ATCC14053 assessed as reduction in viable cells log count at 1 uM preincubated in dark for 15 mins followed by light irradiation at 81 J/cm^2 dose for 15 mins and measured after 36 hrs; assay type: functional; conditions: time 36.5 hrs
Staphylococcus aureus [25] = assay: In vivo antibacterial activity against Staphylococcus aureus ATCC29213 infected in Swiss albino mouse assessed as wound healing at 10 mg treated on day 2 post infection and followed by irradiation with 81 J/cm^2 light for 15 mins and measured every 3 days upto 8 days; assay type: functional, organism-based; conditions: time 8.0 day
Staphylococcus aureus [26] = assay: Photodynamic antimicrobial activity against methicillin resistant Staphylococcus aureus ATCC43300 assessed as log count reduction in viable cells at 0.625 uM preincubated in dark for 15 mins followed by light irradiation at 81 J/cm^2 dose for 15 mins and measured after 36 hrs; assay type: functional; conditions: time 36.5 hrs
Candida albicans [27] = assay: Photodynamic antimicrobial activity against Candida albicans ATCC14053 assessed as reduction in viable cells log count at 0.5 uM preincubated in dark for 15 mins followed by light irradiation at 81 J/cm^2 dose for 15 mins and measured after 36 hrs; assay type: functional; conditions: time 36.5 hrs
Cell membrane [28] = assay: Induction of cell membrane disruption in Candida albicans ATCC14053 at 2.5 uM preincubated for 15 mins followed by irradiated with 81 J/cm^2 light for 15 mins by DAPI staining based confocal laser scanning microscopic analysis; conditions: time 30.0 min
Candida albicans [29] = assay: Induction of morphological changes in Candida albicans ATCC 14053 at 10 uM preincubated for 15 mins followed by light irradiation at 90 mW/cm2 for 15 mins by SEM analysis; assay type: functional, organism-based; conditions: time 30.0 min
HaCaT [30] = assay: Cytotoxicity against human HaCat Cells assessed as reduction in cell survival preincubated for 15 mins followed by irradiated with light at 81 J/cm^2 for 15 mins and measured after 24 hrs by CCK-8 assay; assay type: cell-based; conditions: light or radiation study
Escherichia coli [31] = assay: Photodynamic antimicrobial activity against Escherichia coli ATCC25922 assessed as bacterial clearance ratio at 1.25 uM preincubated for 15 mins in dark followed by irradiation with 54 J/cm^2 light for 10 mins and measured after 36 hrs; assay type: functional, ATCC 25922; conditions: time 2185 min, 36.42 h
Escherichia coli [32] = assay: Photodynamic antimicrobial activity against Escherichia coli ATCC25922 assessed as bacterial clearance ratio at 1.25 uM preincubated for 15 mins in dark followed by irradiation with 27 J/cm^2 light for 5 mins and measured after 36 hrs; assay type: functional, ATCC 25922; conditions: time 2180 min, 36.33 h
Staphylococcus aureus [33] = assay: Photodynamic antimicrobial activity against Staphylococcus aureus […] assessed as decrease in viable cell log count at 0.31 uM preincubated for 15 mins followed by light irradiation at 81 J/cm^2 dose for 15 mins and measured after 36 hrs; assay type: functional; conditions: time 36.5 hrs
Candida albicans [34] = assay: Induction of ROS generation in Candida albicans ATCC14053 at 0.16 to 20 uM preincubated for 15 mins followed by irradiation with 81 J/cm^2 light for 15 mins by DCFH-DA staining-based fluorescence microscopy analysis; assay type: functional, organism-based; conditions: dose 0.16-20 µM, time 30.0 min
Escherichia coli [35] = assay: Photodynamic antimicrobial activity against Escherichia coli ATCC25922 assessed as bacterial clearance ratio at 1.25 uM preincubated for 15 mins in dark followed by irradiation with 81 J/cm^2 light for 15 mins and measured after 36 hrs; assay type: functional, ATCC 25922; conditions: time 2190 min, 36.5 h
Escherichia coli [36] = assay: Induction of morphological changes in Escherichia coli ATCC 25922 at 10 uM preincubated for 15 mins followed by light irradiation at 90 mW/cm2 for 15 mins by SEM analysis; assay type: functional, organism-based; conditions: time 30.0 min

## CC1=C(I)C(C)=[N+]2C1=C(c1cc[n+](C)cc1)c1c(C)c(I)c(C)n1[B-]2(F)F.[I-]
Candida albicans [1]
  Activity: 77%
[2]
  Drug uptake: 65%
Staphylococcus aureus [3]
  MIC: 2.5 µM
Candida albicans [4]
  MIC: 2.5 µM
Staphylococcus aureus [5]
  Activity: Active
Escherichia coli [6]
  MIC: 1.25 µM
Candida albicans [7]
  Drug uptake: 23%
[8]
  logP at 20 h, 2 µM: 2.14
[9]
  Drug uptake: 53%
Staphylococcus aureus [10]
  MIC: 1.25 µM
Escherichia coli [11]
  Activity: 99.4%
Staphylococcus aureus [12]
  Activity: Active

## CCCCCCC[n+]1cccc(C2=C3C(C)=C(I)C(C)=[N+]3[B-](F)(F)n3c(C)c(I)c(C)c32)c1.[I-]
Candida albicans [1]
  Activity: Active
[2]
  Drug uptake: 72%
Staphylococcus aureus [3]
  MIC: 2.5 µM
Candida albicans [4]
  MIC: 1.25 µM
Escherichia coli [6]
  MIC: 0.63 µM
Candida albicans [7]
  Drug uptake: 27%
[8]
  logP at 20 h, 2 µM: > 4
[9]
  Drug uptake: 61%
Staphylococcus aureus [10]
  MIC: 0.63 µM
Staphylococcus aureus [12]
  Activity: >99.9999%

## CC1=C(I)C(C)=[N+]2C1=C(c1ccncc1)c1c(C)c(I)c(C)n1[B-]2(F)F
[8]
  logP at 20 h, 2 µM: > 4

## CC1=C(I)C(C)=[N+]2C1=C(c1cccnc1)c1c(C)c(I)c(C)n1[B-]2(F)F
[8]
  logP at 20 h, 2 µM: > 4

## CC1=C(I)C(C)=[N+]2C1=C(c1cccc[n+]1C)c1c(C)c(I)c(C)n1[B-]2(F)F.[I-]
Candida albicans [1]
  Activity: 77%
[2]
  Drug uptake: 4%
Escherichia coli [13]
  log(activity): 5.26
Staphylococcus aureus [3]
  MIC: 10 µM
Candida albicans [4]
  MIC: 2.5 µM
Escherichia coli [14]
  log(activity): 6.62
Escherichia coli [6]
  MIC: 1.25 µM
Candida albicans [7]
  Drug uptake: 4%
[8]
  logP at 20 h, 2 µM: 0.17
[9]
  Drug uptake: 10%
Staphylococcus aureus [10]
  MIC: 1.25 µM
Escherichia coli [11]
  Activity: 99.3%
Staphylococcus aureus [12]
  Activity: 99.9%
Escherichia coli [15]
  log(activity): 2.53

## CC1=C(I)C(C)=[N+]2C1=C(c1ccc[n+](Cc3ccccc3)c1)c1c(C)c(I)c(C)n1[B-]2(F)F.[Br-]
Candida albicans [1]
  Activity: Active
[2]
  Drug uptake: 80%
Staphylococcus aureus [3]
  MIC: 2.5 µM
Candida albicans [4]
  MIC: 1.25 µM
Escherichia coli [6]
  MIC: 0.63 µM
Candida albicans [7]
  Drug uptake: 25%
[8]
  logP at 20 h, 2 µM: > 4
[9]
  Drug uptake: 68%
Staphylococcus aureus [10]
  MIC: 0.63 µM
Staphylococcus aureus [12]
  Activity: >99.9999%

## CC1=C(I)C(C)=[N+]2C1=C(c1ccc[n+](C)c1)c1c(C)c(I)c(C)n1[B-]2(F)F.[I-]
Candida albicans [1]
  Activity: >99.9%
[2]
  Drug uptake: 56%
Staphylococcus aureus [16]
  log(activity): >6.7
Escherichia coli [17]
  Activity: >99.9998%
HaCaT [18]
  Activity: Non-Toxic
Staphylococcus aureus [19]
  Activity: Active
Cell membrane [20]
  Activity: Active
Staphylococcus aureus [3]
  MIC: 1.25 µM
Cell membrane [21]
  Activity: Active
Staphylococcus aureus [22]
  Activity: inactive
Staphylococcus aureus [23]
  log(activity): 7.05
Candida albicans [4]
  MIC: 0.63 µM
Candida albicans [24]
  Activity: 99.99%
Staphylococcus aureus [25]
  Activity: Active
Escherichia coli [6]
  MIC: 0.63 µM
Staphylococcus aureus [26]
  log(activity): 3.8
Candida albicans [27]
  Activity: 98%
Candida albicans [7]
  Drug uptake: 9%
[8]
  logP at 20 h, 2 µM: 1.44
[9]
  Drug uptake: 47%
Cell membrane [28]
  Activity: Active
Staphylococcus aureus [10]
  MIC: 0.63 µM
Candida albicans [29]
  Activity: inactive
HaCaT [30]
  IC50: 3.86 µM
Escherichia coli [31]
  Activity: 99.97%
Escherichia coli [32]
  Activity: 99.23%
Staphylococcus aureus [33]
  log(activity): 3.59
Escherichia coli [11]
  Activity: 99.9999%
Candida albicans [34]
  Activity: Active
Staphylococcus aureus [12]
  Activity: >99.9999%
Escherichia coli [35]
  Activity: >99.9998%
Escherichia coli [36]
  Activity: inactive

## CC1=C(I)C(C)=[N+]2C1=C(c1ccccn1)c1c(C)c(I)c(C)n1[B-]2(F)F
[8]
  logP at 20 h, 2 µM: > 4
